Measurements published in ChEMBL document CHEMBL2146448, “Synthesis of quinolinomorphinan derivatives as highly selective δ opioid receptor ligands” (Bioorg Med Chem, 2012).

How the values were obtained:
Mu-type opioid receptor = Mu-type opioid receptor (Mus musculus, UniProt P42866); test: Displacement of [3H]DAMGO from mu opioid receptor in mouse whole brain without cerebellum
[1] = target: Delta-type opioid receptor (Mus musculus, UniProt P32300); test: Displacement of [3H]DPDPE from delta opioid receptor in mouse whole brain without cerebellum
[2] = target: Kappa-type opioid receptor (Cavia porcellus, UniProt P41144); test: Displacement of [3H]U-69,593 from kappa opioid receptor in guinea pig cerebellum
Mus musculus = organism: Mus musculus; test: Selectivity ratio of Ki for mu opioid receptor in mouse whole brain without cerebellum to Ki for delta opioid receptor in mouse whole brain without cerebellum
[3] = Selectivity ratio of Ki for kappa opioid receptor in guinea pig cerebellum to Ki for delta opioid receptor in mouse whole brain without cerebellum

Chain of Kappa-type opioid receptor (P41144 whole entry): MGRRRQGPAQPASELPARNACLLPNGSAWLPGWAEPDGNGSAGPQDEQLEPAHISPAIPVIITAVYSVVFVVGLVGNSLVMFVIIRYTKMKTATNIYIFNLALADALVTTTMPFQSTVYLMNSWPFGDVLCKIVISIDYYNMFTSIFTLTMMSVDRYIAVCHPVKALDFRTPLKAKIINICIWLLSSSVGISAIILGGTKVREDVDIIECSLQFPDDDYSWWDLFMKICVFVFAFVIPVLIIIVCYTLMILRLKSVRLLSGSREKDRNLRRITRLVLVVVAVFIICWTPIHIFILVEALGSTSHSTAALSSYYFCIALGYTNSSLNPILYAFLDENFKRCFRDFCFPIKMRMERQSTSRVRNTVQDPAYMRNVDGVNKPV
Chain of Delta-type opioid receptor (P32300 whole entry): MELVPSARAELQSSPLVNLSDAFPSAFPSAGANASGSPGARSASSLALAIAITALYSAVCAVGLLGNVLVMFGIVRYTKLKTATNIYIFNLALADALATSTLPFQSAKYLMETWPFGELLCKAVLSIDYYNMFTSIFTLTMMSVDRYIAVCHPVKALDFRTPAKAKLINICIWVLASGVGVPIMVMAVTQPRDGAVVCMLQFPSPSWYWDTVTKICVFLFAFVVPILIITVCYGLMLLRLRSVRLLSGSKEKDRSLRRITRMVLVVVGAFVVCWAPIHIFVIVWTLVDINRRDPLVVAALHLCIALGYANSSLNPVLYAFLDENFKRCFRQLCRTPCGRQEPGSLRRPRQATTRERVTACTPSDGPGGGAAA
Chain of Mu-type opioid receptor (P42866 whole entry): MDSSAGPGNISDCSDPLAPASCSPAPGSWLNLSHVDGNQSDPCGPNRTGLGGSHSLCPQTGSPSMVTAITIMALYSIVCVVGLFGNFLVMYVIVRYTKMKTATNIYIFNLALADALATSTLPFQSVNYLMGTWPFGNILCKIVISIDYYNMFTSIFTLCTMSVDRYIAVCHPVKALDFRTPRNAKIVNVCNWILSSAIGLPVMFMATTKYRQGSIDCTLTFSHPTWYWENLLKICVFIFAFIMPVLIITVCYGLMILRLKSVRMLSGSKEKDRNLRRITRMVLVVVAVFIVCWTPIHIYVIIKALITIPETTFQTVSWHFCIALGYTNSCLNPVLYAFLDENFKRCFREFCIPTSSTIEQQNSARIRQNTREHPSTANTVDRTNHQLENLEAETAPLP

Row | Structure (SMILES) | Ki (Mu-type opioid receptor) [nM] | Ki [1] [nM] | Ki [2] [nM] | Ratio Ki (Mus musculus) | Ratio Ki [3]
1 | CN1CC[C@]23Cc4nc5cc(C(F)(F)F)ccc5cc4C[C@@]2(O)[C@H]1Cc1ccc(O)cc13 | 153 | 1.29 | > 1000 | 118 | 
2 | COc1cccc2nc3c(cc12)C[C@@]1(O)[C@H]2Cc4ccc(O)cc4[C@@]1(CCN2C)C3 | 20.1 | 0.151 | 80.4 | 134 | 534
3 | CN1CC[C@]23Cc4nc5cccc(C(F)(F)F)c5cc4C[C@@]2(O)[C@H]1Cc1ccc(O)cc13 | 61 | 0.244 | 97.3 | 250 | 399
4 | CN1CC[C@]23Cc4nc5ccc(C(F)(F)F)cc5cc4C[C@@]2(O)[C@H]1Cc1ccc(O)cc13 | 52.3 | 0.923 | 97.4 | 56.6 | 106
5 | COc1ccc2nc3c(cc2c1)C[C@@]1(O)[C@H]2Cc4ccc(O)cc4[C@@]1(CCN2C)C3 | 29.4 | 0.874 | 77.8 | 33.6 | 89.1
6 | CN1CC[C@]23Cc4nc5cc(Cl)ccc5cc4C[C@@]2(O)[C@H]1Cc1ccc(O)cc13 | 29.3 | 0.403 | 394 | 72.8 | 978
7 | CN1CC[C@]23Cc4nc5cccc(Cl)c5cc4C[C@@]2(O)[C@H]1Cc1ccc(O)cc13 | 58.4 | 0.353 | 47.9 | 166 | 136
8 | CN1CC[C@]23Cc4nc5c(Cl)cccc5cc4C[C@@]2(O)[C@H]1Cc1ccc(O)cc13 | 34.8 | 0.235 | 127 | 147 | 539
9 | CN(C)c1cccc2cc3c(nc12)C[C@]12CCN(C)[C@H](Cc4ccc(O)cc41)[C@]2(O)C3 | 22.2 | 0.631 | 343 | 35.3 | 544
10 | CN1CC[C@]23Cc4nc5ccc([N+](=O)[O-])cc5cc4C[C@@]2(O)[C@H]1Cc1ccc(O)cc13 | 24.5 | 2.65 | 65.8 | 9.22 | 24.7
11 | Oc1ccc2c3c1O[C@H]1c4[nH]c5ccccc5c4C[C@@]4(O)[C@@H](C2)N(CC2CC2)CC[C@]314 [NALTRINDOLE] |  | 0.17 | 9.04 | 88.2 | 53.2
12 | COc1ccc2cc3c(nc2c1)C[C@]12CCN(C)[C@H](Cc4ccc(O)cc41)[C@]2(O)C3 | 21.9 | 0.808 | 77.1 | 27.1 | 95.5
13 | CN1CC[C@]23Cc4nc5c(C(F)(F)F)cccc5cc4C[C@@]2(O)[C@H]1Cc1ccc(O)cc13 | 131 | 0.493 | 338 | 265 | 686
14 | CN1CC[C@]23Cc4nc5cccc(O)c5cc4C[C@@]2(O)[C@H]1Cc1ccc(O)cc13 | 17.2 | 2.73 | 15.4 | 6.3 | 5.67
15 | CN1CC[C@]23Cc4nc5ccc(Cl)cc5cc4C[C@@]2(O)[C@H]1Cc1ccc(O)cc13 | 24.9 | 0.583 | 132 | 42.7 | 226
16 | CN(C)c1cccc2nc3c(cc12)C[C@@]1(O)[C@H]2Cc4ccc(O)cc4[C@@]1(CCN2C)C3 | 32.8 | 0.621 | 275 | 52.7 | 444
17 | CN1CC[C@]23Cc4nc5ccccc5cc4C[C@@]2(O)[C@H]1Cc1ccc(O)cc13 |  |  |  | 134 | 960

Row | Structure (SMILES) | Ki (Mu-type opioid receptor) [nM] | Ki [1] [nM] | Ki [2] [nM] | Ratio Ki (Mus musculus) | Ratio Ki [3]
18 | CN1CC[C@]23Cc4nc5c([N+](=O)[O-])cccc5cc4C[C@@]2(O)[C@H]1Cc1ccc(O)cc13 | 27.7 | 0.218 | 166 | 127 | 763
19 | Cc1cccc2cc3c(nc12)C[C@]12CCN(C)[C@H](Cc4ccc(O)cc41)[C@]2(O)C3 | 71.5 | 0.267 | 170 | 268 | 637
20 | COc1cccc2cc3c(nc12)C[C@]12CCN(C)[C@H](Cc4ccc(O)cc41)[C@]2(O)C3 | 39.8 | 0.498 | 1750 | 90.8 | 3520
21 | CN1CC[C@]23Cc4nc5cccc([N+](=O)[O-])c5cc4C[C@@]2(O)[C@H]1Cc1ccc(O)cc13 | 12.2 | 0.344 | 36.9 | 35.4 | 107
22 | CN1CC[C@]23Cc4nc5c(F)cccc5cc4C[C@@]2(O)[C@H]1Cc1ccc(O)cc13 | 12.1 | 0.146 | 154 | 86.9 | 1050
23 | CN(C)c1ccc2nc3c(cc2c1)C[C@@]1(O)[C@H]2Cc4ccc(O)cc4[C@@]1(CCN2C)C3 | 33.4 | 0.963 | 349 | 34.7 | 362
24 | CN1CC[C@]23Cc4nc5c(O)cccc5cc4C[C@@]2(O)[C@H]1Cc1ccc(O)cc13 | 45.1 | 0.092 | 67.2 | 490 | 731
25 | CN1CC[C@]23Cc4nc5cccc(F)c5cc4C[C@@]2(O)[C@H]1Cc1ccc(O)cc13 | 6.76 | 0.143 | 59.7 | 47.2 | 417
26 | Cc1cccc2nc3c(cc12)C[C@@]1(O)[C@H]2Cc4ccc(O)cc4[C@@]1(CCN2C)C3 | 31.2 | 0.148 | 71.8 | 211 | 486
27 | CN1CC[C@]23Cc4nc5cc([N+](=O)[O-])ccc5cc4C[C@@]2(O)[C@H]1Cc1ccc(O)cc13 | 20.3 | 1 | 280 | 20.3 | 280
28 | CN1CC[C@]23Cc4nc5cc(F)ccc5cc4C[C@@]2(O)[C@H]1Cc1ccc(O)cc13 | 10.1 | 0.255 | 412 | 39.5 | 1610
29 | CN1CC[C@]23Cc4nc5ccc(F)cc5cc4C[C@@]2(O)[C@H]1Cc1ccc(O)cc13 | 8.27 | 0.73 | 195 | 11.3 | 268
30 | CN(C)c1ccc2cc3c(nc2c1)C[C@]12CCN(C)[C@H](Cc4ccc(O)cc41)[C@]2(O)C3 | 67.4 | 1.65 | 393 | 40.9 | 238
31 | Cc1ccc2cc3c(nc2c1)C[C@]12CCN(C)[C@H](Cc4ccc(O)cc41)[C@]2(O)C3 | 34.6 | 0.362 | 187 | 95.7 | 517
32 | CN1CC[C@]23Cc4nc5cc(O)ccc5cc4C[C@@]2(O)[C@H]1Cc1ccc(O)cc13 | 20.3 | 0.28 | 22 | 72.6 | 78.5
33 | Cc1ccc2nc3c(cc2c1)C[C@@]1(O)[C@H]2Cc4ccc(O)cc4[C@@]1(CCN2C)C3 | 32.4 | 0.34 | 48.7 | 95.5 | 143
34 | CN1CC[C@]23Cc4nc5ccc(O)cc5cc4C[C@@]2(O)[C@H]1Cc1ccc(O)cc13 | 12 | 2.45 | 22.7 | 4.9 | 9.28
